Assay [1] has as its target Serine/threonine-protein kinase pim-1 (Homo sapiens) (UniProt P11309). Briefly: Inhibition of human full length PIM1 expressed in baculovirus assessed as substrate phosphorylation using fluorescence-labelled peptides as substrate at 8 uM after 90 mins by microfluidic peptide phosphorylation assay.
Assay [2] deals with Tyrosine-protein kinase Fer (Homo sapiens) (UniProt P16591). In words: Inhibition of human FER catalytic domain expressed in baculovirus assessed as substrate phosphorylation using fluorescence-labelled peptides as substrate at 8 uM after 90 mins by microfluidic peptide phosphorylation assay.
Assay [3] concerns the target Ribosomal protein S6 kinase alpha-3 (Homo sapiens) (UniProt P51812). Briefly: Inhibition of human full length RSK2 expressed in baculovirus assessed as substrate phosphorylation using fluorescence-labelled peptides as substrate at 0.1 uM after 90 mins by microfluidic peptide phosphorylation assay.
The target in assay [4] is T1, Serine/threonine-protein kinase Chk1 (Homo sapiens) (UniProt O14757).
T1 sequence (whole entry): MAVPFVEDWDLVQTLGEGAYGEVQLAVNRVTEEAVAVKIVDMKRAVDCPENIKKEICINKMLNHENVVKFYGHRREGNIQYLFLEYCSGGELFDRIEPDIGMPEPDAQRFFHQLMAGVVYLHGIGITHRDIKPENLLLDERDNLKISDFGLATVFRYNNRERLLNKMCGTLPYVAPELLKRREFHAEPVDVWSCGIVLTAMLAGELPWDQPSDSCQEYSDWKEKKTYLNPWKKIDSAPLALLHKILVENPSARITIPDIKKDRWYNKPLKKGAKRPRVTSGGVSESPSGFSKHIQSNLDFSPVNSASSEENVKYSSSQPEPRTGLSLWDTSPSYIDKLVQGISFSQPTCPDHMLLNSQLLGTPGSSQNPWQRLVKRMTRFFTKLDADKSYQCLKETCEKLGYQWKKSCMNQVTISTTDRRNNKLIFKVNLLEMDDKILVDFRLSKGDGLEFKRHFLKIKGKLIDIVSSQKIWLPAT
In words: Inhibition of human full length CHK1 expressed in baculovirus assessed as substrate phosphorylation using fluorescence-labelled peptides as substrate at 0.06 uM after 90 mins by microfluidic peptide phosphorylation assay.

For assay [5], the target named is RAF proto-oncogene serine/threonine-protein kinase (Homo sapiens) (UniProt P04049). Briefly: Inhibition of human truncated c-Raf expressed in baculovirus assessed as substrate phosphorylation using fluorescence-labelled peptides as substrate at 0.2 uM after 90 mins by microfluidic peptide phosphorylation assay.
Assay [6] addresses T2, Cytoplasmic tyrosine-protein kinase BMX (Homo sapiens) (UniProt P51813).
T2 sequence (whole entry): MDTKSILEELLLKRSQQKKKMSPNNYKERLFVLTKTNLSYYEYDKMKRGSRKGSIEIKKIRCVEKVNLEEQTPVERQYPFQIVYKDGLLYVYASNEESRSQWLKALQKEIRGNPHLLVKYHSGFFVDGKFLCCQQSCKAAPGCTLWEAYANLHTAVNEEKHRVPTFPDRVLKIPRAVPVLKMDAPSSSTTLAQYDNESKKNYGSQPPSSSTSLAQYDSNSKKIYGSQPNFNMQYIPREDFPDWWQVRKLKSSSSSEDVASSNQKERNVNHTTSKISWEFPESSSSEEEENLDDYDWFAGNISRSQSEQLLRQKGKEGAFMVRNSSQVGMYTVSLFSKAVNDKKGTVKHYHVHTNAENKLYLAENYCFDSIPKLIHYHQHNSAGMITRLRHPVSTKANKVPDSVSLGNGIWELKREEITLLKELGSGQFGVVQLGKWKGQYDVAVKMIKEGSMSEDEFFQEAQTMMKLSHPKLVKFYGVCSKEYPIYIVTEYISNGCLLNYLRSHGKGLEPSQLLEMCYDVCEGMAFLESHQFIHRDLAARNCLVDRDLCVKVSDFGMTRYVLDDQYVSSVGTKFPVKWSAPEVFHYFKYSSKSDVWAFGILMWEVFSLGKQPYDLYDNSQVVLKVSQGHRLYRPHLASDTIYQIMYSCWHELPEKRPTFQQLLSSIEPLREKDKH
In words: Inhibition of human full length BMX expressed in baculovirus assessed as substrate phosphorylation using fluorescence-labelled peptides as substrate at 2 uM after 90 mins by microfluidic peptide phosphorylation assay.

In assay [7] the target is Serine/threonine-protein kinase PAK 2 (Homo sapiens) (UniProt Q13177). Briefly: Inhibition of human truncated PAK2 expressed in Escherichia coli cell assessed as substrate phosphorylation using fluorescence-labelled peptides as substrate at 2 uM after 90 mins by microfluidic peptide phosphorylation assay.
For assay [8], the target named is Tyrosine-protein kinase Lck (Homo sapiens) (UniProt P06239). In words: Inhibition of human full length LCK expressed in baculovirus assessed as substrate phosphorylation using fluorescence-labelled peptides as substrate at 95 uM after 90 mins by microfluidic peptide phosphorylation assay.
Assay [9] deals with Dual specificity tyrosine-phosphorylation-regulated kinase 1A (Rattus norvegicus) (UniProt Q63470). Briefly: Inhibition of rat full length DYRK1a expressed in Escherichia coli cell assessed as substrate phosphorylation using fluorescence-labelled peptides as substrate at […] after 90 mins by microfluidic peptide phosphorylation assay.
Assay [10] addresses Cyclin-dependent kinase 2 (Homo sapiens) (UniProt P24941). Briefly: Inhibition of human full length CDK2 expressed in baculovirus assessed as substrate phosphorylation using fluorescence-labelled peptides as substrate at […] after 90 mins by microfluidic peptide phosphorylation assay.
Assay [11] deals with T3, Serine/threonine-protein kinase DCLK2 (Homo sapiens) (UniProt Q8N568).
T3 sequence (whole entry): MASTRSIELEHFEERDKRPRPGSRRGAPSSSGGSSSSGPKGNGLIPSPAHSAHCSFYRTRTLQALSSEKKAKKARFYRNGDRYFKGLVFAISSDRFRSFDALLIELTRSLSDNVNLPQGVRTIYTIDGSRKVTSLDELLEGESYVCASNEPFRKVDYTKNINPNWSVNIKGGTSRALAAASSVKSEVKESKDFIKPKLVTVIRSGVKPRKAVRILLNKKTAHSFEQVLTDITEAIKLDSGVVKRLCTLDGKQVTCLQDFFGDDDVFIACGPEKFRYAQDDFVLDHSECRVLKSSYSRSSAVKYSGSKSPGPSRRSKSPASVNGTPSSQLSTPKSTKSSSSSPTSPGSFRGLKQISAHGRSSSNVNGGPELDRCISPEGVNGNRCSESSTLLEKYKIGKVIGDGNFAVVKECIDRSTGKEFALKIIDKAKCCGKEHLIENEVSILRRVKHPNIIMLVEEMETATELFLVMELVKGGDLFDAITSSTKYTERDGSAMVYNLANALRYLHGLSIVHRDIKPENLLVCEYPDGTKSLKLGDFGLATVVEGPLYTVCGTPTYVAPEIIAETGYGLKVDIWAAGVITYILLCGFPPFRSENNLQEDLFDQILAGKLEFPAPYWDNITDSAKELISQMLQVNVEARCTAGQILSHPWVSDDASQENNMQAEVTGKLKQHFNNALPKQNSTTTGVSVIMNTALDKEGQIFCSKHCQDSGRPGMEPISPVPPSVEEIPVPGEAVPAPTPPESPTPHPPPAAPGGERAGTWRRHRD
Briefly: Inhibition of human full length DCAMKL2 expressed in baculovirus assessed as substrate phosphorylation using fluorescence-labelled peptides as substrate at […] after 90 mins by microfluidic peptide phosphorylation assay.

Structures are written as SMILES.

Serine/threonine-protein kinase pim-1 (Homo sapiens), sequence (P11309 whole entry, looked up, the tested form may be a part): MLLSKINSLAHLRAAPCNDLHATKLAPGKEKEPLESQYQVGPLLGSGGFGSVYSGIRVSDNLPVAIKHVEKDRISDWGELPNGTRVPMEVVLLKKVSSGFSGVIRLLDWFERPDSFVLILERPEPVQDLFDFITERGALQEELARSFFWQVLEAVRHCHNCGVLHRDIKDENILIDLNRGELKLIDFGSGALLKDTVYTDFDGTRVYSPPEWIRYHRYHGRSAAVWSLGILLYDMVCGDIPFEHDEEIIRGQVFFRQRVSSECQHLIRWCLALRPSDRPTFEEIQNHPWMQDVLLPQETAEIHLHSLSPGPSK
Ribosomal protein S6 kinase alpha-3 (Homo sapiens), sequence (P51812 whole entry): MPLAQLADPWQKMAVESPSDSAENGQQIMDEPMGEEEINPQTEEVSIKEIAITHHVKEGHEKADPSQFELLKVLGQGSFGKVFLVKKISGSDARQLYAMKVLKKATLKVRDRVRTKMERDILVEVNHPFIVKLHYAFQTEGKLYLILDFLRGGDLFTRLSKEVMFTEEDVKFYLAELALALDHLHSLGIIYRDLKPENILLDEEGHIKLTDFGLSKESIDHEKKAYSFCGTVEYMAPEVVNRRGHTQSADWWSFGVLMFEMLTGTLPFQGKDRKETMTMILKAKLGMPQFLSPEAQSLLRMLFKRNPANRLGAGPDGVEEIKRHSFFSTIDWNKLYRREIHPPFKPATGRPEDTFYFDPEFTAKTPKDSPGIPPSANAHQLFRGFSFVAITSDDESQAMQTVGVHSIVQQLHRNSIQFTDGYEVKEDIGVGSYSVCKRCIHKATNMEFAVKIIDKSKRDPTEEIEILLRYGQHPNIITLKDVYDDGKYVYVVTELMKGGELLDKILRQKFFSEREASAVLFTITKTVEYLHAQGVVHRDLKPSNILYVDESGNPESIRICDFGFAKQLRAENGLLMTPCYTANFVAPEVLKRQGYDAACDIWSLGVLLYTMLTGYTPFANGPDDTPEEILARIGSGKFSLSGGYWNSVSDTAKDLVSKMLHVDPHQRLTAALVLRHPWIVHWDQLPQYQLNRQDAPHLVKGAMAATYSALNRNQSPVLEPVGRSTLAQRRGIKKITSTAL
Tyrosine-protein kinase Fer (Homo sapiens), sequence (P16591 whole entry, looked up, the tested form may be a part): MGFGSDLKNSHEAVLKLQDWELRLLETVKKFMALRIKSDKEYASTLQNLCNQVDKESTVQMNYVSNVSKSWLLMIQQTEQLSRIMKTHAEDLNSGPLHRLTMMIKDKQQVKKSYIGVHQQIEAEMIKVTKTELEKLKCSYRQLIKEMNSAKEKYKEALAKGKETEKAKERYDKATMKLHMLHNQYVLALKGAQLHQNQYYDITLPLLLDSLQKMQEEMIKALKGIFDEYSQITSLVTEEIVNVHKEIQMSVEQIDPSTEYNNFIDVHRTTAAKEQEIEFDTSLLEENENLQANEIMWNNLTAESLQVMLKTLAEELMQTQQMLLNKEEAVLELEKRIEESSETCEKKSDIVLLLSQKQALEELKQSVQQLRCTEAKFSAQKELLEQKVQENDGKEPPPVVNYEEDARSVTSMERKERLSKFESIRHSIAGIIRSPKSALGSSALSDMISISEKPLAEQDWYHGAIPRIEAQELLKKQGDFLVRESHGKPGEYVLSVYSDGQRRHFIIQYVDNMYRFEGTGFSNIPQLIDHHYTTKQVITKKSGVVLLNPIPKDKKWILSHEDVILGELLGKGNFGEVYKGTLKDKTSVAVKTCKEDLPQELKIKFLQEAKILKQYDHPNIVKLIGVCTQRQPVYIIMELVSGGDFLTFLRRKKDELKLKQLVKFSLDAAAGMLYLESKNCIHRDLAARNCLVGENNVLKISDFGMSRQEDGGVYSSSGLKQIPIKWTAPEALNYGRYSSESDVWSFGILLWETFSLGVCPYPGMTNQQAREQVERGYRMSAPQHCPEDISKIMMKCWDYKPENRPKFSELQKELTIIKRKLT
Tyrosine-protein kinase Lck (Homo sapiens), sequence (P06239 2-509 limits assumed): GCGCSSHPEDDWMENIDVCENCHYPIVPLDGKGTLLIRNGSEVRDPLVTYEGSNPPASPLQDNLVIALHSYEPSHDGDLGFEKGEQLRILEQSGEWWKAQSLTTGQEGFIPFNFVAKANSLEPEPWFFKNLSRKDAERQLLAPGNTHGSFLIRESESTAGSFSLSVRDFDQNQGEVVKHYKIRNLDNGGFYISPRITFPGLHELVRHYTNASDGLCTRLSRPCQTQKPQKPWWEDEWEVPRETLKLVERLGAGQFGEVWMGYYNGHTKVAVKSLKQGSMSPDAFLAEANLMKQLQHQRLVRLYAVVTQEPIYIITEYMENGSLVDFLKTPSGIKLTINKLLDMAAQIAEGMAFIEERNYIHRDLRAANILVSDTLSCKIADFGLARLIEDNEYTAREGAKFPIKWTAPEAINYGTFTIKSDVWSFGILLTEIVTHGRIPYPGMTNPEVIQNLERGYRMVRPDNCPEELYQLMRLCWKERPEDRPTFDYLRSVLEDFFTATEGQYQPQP
RAF proto-oncogene serine/threonine-protein kinase (Homo sapiens), sequence (P04049 whole entry, the tested form may be a part): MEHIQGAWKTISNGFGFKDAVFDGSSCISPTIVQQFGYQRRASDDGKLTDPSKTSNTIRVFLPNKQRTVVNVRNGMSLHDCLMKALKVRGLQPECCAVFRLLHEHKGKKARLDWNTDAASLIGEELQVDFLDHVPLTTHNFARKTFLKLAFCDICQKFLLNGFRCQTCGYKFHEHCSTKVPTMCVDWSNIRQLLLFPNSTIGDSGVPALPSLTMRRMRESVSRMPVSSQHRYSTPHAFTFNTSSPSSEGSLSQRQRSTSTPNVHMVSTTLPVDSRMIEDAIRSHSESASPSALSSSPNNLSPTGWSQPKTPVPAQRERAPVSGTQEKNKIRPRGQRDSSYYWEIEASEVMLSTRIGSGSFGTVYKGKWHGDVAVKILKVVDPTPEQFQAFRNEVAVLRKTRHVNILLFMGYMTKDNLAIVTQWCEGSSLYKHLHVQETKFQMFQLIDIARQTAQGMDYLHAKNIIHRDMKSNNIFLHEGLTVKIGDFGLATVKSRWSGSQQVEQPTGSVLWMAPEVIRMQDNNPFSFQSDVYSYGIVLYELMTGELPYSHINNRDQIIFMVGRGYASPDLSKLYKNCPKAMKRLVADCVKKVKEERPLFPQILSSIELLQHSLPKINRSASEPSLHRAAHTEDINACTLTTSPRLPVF
Serine/threonine-protein kinase PAK 2 (Homo sapiens), sequence (Q13177 whole entry, the tested form may be a part): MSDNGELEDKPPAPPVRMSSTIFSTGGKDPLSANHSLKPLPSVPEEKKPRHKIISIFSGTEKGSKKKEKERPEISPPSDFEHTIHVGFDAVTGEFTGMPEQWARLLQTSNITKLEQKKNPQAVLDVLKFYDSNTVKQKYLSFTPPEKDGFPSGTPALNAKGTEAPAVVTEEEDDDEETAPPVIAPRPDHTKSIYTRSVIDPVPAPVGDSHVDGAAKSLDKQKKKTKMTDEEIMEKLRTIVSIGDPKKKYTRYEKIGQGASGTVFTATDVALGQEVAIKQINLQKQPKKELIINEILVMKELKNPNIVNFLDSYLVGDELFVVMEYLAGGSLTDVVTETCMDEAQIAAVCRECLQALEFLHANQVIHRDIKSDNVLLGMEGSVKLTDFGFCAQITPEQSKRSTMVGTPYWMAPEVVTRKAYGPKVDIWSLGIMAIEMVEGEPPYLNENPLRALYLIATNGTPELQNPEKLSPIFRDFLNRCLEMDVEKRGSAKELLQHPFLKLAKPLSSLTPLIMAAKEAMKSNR

Take `NCC1CCN(c2ncnc3[nH]ccc23)CC1`: the inhibition was 9% in [1] and 1.5% in [2]. With `C[C@H](CN(C)C)Oc1nc(Nc2cc3cccc(Cl)c3cn2)cnc1C#N`, the inhibition in assay [3] is 59.5%. Consider `NC1(Cc2ccc(Cl)cc2)CCN(c2ncnc3[nH]ccc23)CC1`, for which, in assay [4], the inhibition turned out to be 0%.

For the compound `Clc1ccc(C2(c3ccc(-c4ncnc5[nH]cnc45)cc3)CCNCC2)cc1`, the inhibition in assay [5] was found to be 3.5%. `NC1CCN(c2ncnc3[nH]ccc23)CC1`: the inhibition in [6] amounted to 2%; in [7] it was 3.5%. Turning to `NCCc1ccc(-c2ncnc3[nH]cnc23)cc1`, the inhibition in assay [8] is 68.5%. Regarding `COC(=O)c1cnc(Nc2cnc(C#N)cn2)cc1NCC1CCNCC1`, the inhibition worked out at 1.5% in assay [9], 6% in assay [10] and 4.5% in [11].

The inhibition is the relative decrease from the control value, in per cent.

Values taken from ChEMBL document CHEMBL3132769, “Fragment growing to retain or alter the selectivity of anchored kinase hinge-binding fragments” (Medchemcomm, 2014).
